Measured values published in PMC6269819, “Evaluation of the Biological Activity of Naturally Occurring 5,8-Dihydroxycoumarin” (Molecules, 2013).
Marks after values point to notes of the source that are not given here.

Legend:
[1] = system: Drosophila melanogaster wing cells; test: Somatic mutation and recombination test (SMART), wing spot test; format: in vivo; details: positive control, 50 μM MMS
Experimental: The basic procedures for the D. melanogaster somatic mutation and recombination test (SMART) were performed according to Graf and co-workers. Two D. melanogaster strains (kindly provided by Dr. H. Frei, Zurich, Switzerland) were used in the present study: virgin females from the strain ORR/ORR; flr^3/ In (3LR) TM3, ri p^p sep l(3)89Aa bx^34e e Bd^S were mated with mwh/mwh males. The ORR strain has chromosomes 1 and 2 from a DDT-resistant Oregon line, which are characterized by constitutively over-expressed CYP450 genes. The CYP 450 enzymes play the main role in the bioactivation of xenobiotics, as well as natural products including phytochemicals. Thus, the use of this high-bioactivation strain of D. melanogaster facilitates the detection of promutagens of numerous classes of compounds. The markers mwh (multiple wing hairs) and flr^3 (misshapen, flare-like hairs) are recessive wing-hair mutations located on the third chromosome at 0.3 and 38.8 respectively.
Eggs from the crosses were collected over 10 h periods. Progeny were raised on the Instant Drosophila Medium (Sigma Chemical Co., St. Louis, MO, USA) at 25 °C. Two schedules of the larvae treatment were applied. Firstly, the crossed flies were permitted to lay eggs for 10 h in vials containing medium prepared with 5,8-DHC solution. Thus, the exposure duration was about 120 h (i.e., evolutionary period from fly egg till case-worm). According to the second schedule, the 72 ± 5 h-old larvae were exposed to 5,8-DHC by adding test solution to the surface of the medium and were fed on this medium for the rest of their development, during approximately 48 h. 5,8-DHC was dissolved in ethanol and then diluted with distilled water to the desired concentration, with the final ethanol concentration 5% v/v. The solutions were always prepared immediately before use. Solvent controls were included in all treatments. Methyl methanesulfonate was included in the assay as a positive control. Trans-heterozygous (mwh flr^+ / mwh^+ flr^3) flies were collected and stored in a 70% ethanol. The wings of adult flies were mounted on glass slides in Faure’s solution, coded and scored at 400× magnification (Nikon E200) for the presence of single (mwh or flr^3 phenotype) or twin (adjacent mwh and flr^3 clones) spots. The spots were recorded according to standard procedures. No less than 40 wings were analysed per each experimental point. Two repeated experiments were carried out.

human lymphocytes = test: Chromosome aberrations in human lymphocyte cultures in vitro; format: cell-based; details: female, human, 24 h, 0.02 µL/mL
Experimental: Blood samples were taken from two healthy female volunteers (donor A) and (donor B). Whole peripheral blood was grown in HEPES-buffered RPMI 1640 medium supplemented with 12% heat-inactivated newborn calf serum, 7.8 μg/mL phytohemagglutinin P, 50 μg/mL gentamycin, 10 μg/mL 5-bromo-2'-deoxyuridine. All reagents used for the cell culture were purchased from Sigma-Aldrich Chemical Co. (St. Louis, MO, USA). Cell cultures were incubated at 37 °C for 72 h. Treatment with test compounds was carried out 48 h after culture initiation and lasted for the period of 24 h. Dose range of 5,8-DHC (10 to 40 µg/mL) was based on pilot experiments (data not shown). As whole blood cultures display many properties common with the liver microsomal cytochrome P450 system, no external metabolising enzymes were added. 5,8-DHC was dissolved in ethanol and then diluted with RPMI 1640 medium to the desired concentration. Ethanol in a final concentration of 7.5µL/mL was used as a solvent control. […] Working solutions were made just before treatment. Two parallel cultures were used for each concentration of the compound tested. Two cultures were left untreated and served as a blank control. Methyl methanesulfonate (MMS) in a final concentration of 0.02 μL/mL was used as a positive control. The cultures were exposed to colchicine at a final concentration of 0.6 μg/mL for the last 3 h of incubation. The cells were harvested, hypotonically swollen in 0.075 M KCl and fixed in methanol: acetic acid (3:1). Air-dried slides were differentially stained by fluorescence plus Giemsa technique as has been described previously. Briefly, the slides were stained for 10 min. with 10 μg/mL of Hoechst 33258 dye (dissolved in 0.07 M Soerensen’s buffer, pH 6.8). Then the slides were rinsed, mounted with citrate buffer (pH 8.5), covered with cover slips and exposed to UV light (400 W mercury lamp at a distance of 15 cm) for 6–7 min. Slides were then rinsed and stained for 3–4 min. with 5% Giemsa. Cytogenetic analysis was performed on coded slides. No less than 100 first-mitotic division metaphases per culture were analysed for CAs, and no less than 50 second-division metaphases for SCEs.

[2] = system: Chinese hamster ovary (CHO) cells; details: doses up to 333 μM; cited from earlier work
[3] = system: Wistar rat bone marrow cells; test: Micronucleus in vivo assay in rat bone marrow; details: single i.p. 30 mg/kg b.w., sacrifice 24 h
Description: Male albino Wistar rats aged 8–10 weeks and having body weight of 200–220 g, were used in the present study. The animals were supplied by the Animal Facility of the Department of Immunology, State Research Institute Center for Innovative Medicine. Ethical approval was given by the Committee of the Lithuanian Animal Care and Use. Prior to the start of the study, the animals were acclimatized for 7 days. They were housed under conditions of constant temperature, humidity and a light/dark cycle of 12 h/12 h with free access to standard commercial pellet diet and drinking water. The animals were randomly distributed into 11 experimental groups of six rats each.
We used a mixture of dimethylsulfoxide (DMSO) and sunflower oil (1:2) as the vehicle for 5,8-DHC (5,8-DHC was dissolved in DMSO and adjusted to the desired dose with sunflower oil immediately before administration). For the acute treatment, the animals received single intraperitoneal (i.p.) injections of 10 or 20 mg/kg of 5,8-DHC in 1 mL volume per 100 g body weight (b.w.). The negative control group comprised animals, given a single i.p. injection of vehicle (1 mL/100 g b.w.) and the positive control group, given cyclophosphamide (CP, 30 mg/kg adjusted in 0.5 mL/100 g b.w. in sterile physiological saline). A commercial form of cyclophosphamide was used (‘Endoxan’, ASTA Medica AG, Frankfurt, Germany). Blank controls comprised untreated animals. For the repeated treatment, 5,8-DHC (10 or 20 mg/kg) or vehicle was administered via gavage (1 mL/100 g b.w.) once a day for 3 consecutive days. Animals were sacrificed 24 h or 48 h after the last dose administration. Colchicine was applied i.p. at a dose of 2 mg/kg b.w. in 1 mL volume 90 min before sacrifice. Both femurs were dissected from each animal and used to obtain bone marrow preparations for the analysis of chromosome aberrations and micronucleus.
The bone marrow MN assay was conducted according to the standard procedure. Ends of the femura were cut off and the bone marrow was washed out with 2 mL of heat-inactivated foetal calf serum (Biochrom AG, Berlin, Germany), mixed thoroughly to obtain a fine suspension and centrifuged for 5 min at 150 × g. The supernatant was discarded and the cell pellet was carefully re-suspended. At least two smears per animal were prepared and allowed to air dry prior to fixation with methanol. The slides were stained in May-Grünwald solution followed by Giemsa (both Merck), coded and scored blind by the same scorer under magnification of 1000× (Jenaval, Zeiss, Jena, Germany). Micronucleated polychromatic erythrocyte (MNPCE) frequencies were based on the observation of 2,000 immature polychromatic erythrocytes (PCEs). Bone marrow toxicity was monitored by a decrease of PCE to total erythrocytes (e.g., PCEs+NCEs, normochromatic erythrocytes). At least 1,000 bone marrow erythrocytes per animal were analysed.

[4] = system: Wistar rat bone marrow cells; details: rats, single 30–40 mg/kg dose of CP; cited from earlier work
male rat hepatocytes = details: cited from earlier work

Which large single spots [1] does the source give for `COS(C)(=O)=O` [MMS, Methyl methanesulfonate, reference compound] here?
Its large single spots is 4.63.

And the small single spots [1]?
Its small single spots is 1.65.

What about the “total spots per wing” value [1] of the same compound?
Its value is 7.15 spots per wing.

What about the twin spots [1] of the same compound?
The twin spots was 0.88.

And the wings with spots [1]?
Its wings with spots is 100%.

What about the “CA per 100 cells (±S.E.M.)” value (human lymphocytes) of the same compound?
The value was 12.0 ± 3.2 ^b per 100 cells.

Which “increase in SCE or chromosome aberration” value [2] does the source give for `O=c1ccc2ccc(O)cc2o1` [umbelliferone, 7-hydroxycoumarin] here?
The value was “no evidence of increase”.

With `O=P1(N(CCCl)CCCl)NCCCO1` (stereo not drawn) [CP, cyclophosphamide, reference compound] as the compound, how does the “MNPCE (%± S.E.M.)” value [3] read?
Its value is 1.67 ± 0.22 ^a %.

And the “PCE (%± S.E.M.)” value [3]?
The value was 34.8 ± 6.4%.

And the “frequency of abnormal metaphases” value [4]?
The value was 16–21%.

For `O=c1ccc2ccccc2o1` [coumarin, 1,2-benzopyrone], which “induction of UDS” value (male rat hepatocytes; oral administration, doses up to 320 mg/kg bw) is on record?
Its value is “does not induce UDS”.

And the maximum tolerated dose (male rat hepatocytes; rat, in vivo, po)?
The maximum tolerated dose was 320 mg/kg bw.
